In US20170210751A1, “PRMT5 INHIBITORS AND USES THEREOF” (Epizyme, Inc., priority 2014, published 2017):
pIC50: −log10 of the molar value.

biological target: T1, PRMT5/MEP50 (Homo sapiens, UniProt O14744); assay: PRMT5 Biochemical Assay (PRMT5/MEP50 enzyme assay on peptide substrate, 3H-SAM Flashplate); settings: PRMT5/MEP50 4 nM, 3H-SAM 75 nM, peptide 40 nM, 30 min preincubation at 25 degrees Celsius
T1 construct: Flag-PRMT5; made in house; host or cells: Spodoptera frugiperda (SF9) insect cells, baculovirus (pDEST8)
T1 sequence (O14744 with tags, fused parts or gaps): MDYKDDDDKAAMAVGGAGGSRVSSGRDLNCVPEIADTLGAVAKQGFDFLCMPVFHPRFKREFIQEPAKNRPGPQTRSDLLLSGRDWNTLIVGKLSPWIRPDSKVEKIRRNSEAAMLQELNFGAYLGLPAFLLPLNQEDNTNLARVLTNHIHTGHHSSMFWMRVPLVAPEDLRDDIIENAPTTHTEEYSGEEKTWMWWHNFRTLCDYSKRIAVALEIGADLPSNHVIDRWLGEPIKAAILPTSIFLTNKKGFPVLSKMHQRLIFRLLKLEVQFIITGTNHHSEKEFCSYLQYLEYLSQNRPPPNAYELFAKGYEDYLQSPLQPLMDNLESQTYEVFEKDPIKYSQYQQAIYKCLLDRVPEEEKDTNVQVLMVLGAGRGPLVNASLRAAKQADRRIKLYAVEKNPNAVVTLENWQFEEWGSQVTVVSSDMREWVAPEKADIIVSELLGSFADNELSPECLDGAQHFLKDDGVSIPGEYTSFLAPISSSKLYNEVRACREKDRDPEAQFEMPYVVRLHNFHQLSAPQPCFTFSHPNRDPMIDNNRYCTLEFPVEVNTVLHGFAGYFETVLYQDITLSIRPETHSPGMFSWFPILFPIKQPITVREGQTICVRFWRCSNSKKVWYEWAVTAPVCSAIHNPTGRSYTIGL
T1 sequence (Q9BQA1 with tags, fused parts or gaps partner limits assumed): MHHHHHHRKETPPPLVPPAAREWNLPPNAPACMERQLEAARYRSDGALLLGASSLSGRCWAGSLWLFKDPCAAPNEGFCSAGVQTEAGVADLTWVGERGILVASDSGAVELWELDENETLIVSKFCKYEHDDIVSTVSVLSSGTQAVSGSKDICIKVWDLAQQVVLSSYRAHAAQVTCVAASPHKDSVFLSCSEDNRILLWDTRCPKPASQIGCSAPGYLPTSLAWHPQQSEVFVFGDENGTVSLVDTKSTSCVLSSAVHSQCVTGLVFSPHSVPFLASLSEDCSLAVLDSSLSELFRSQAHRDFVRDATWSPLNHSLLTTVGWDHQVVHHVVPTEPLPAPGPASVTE
Outline: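 FLAG-PRMT5/His-MEP50 from Sf9 cells (4 nM) preincubated 30 min at 25 °C with compounds, then reacted with 75 nM 3H-SAM and 40 nM biotinylated histone H4 1-15 peptide in Bicine pH 7.6, 1% DMSO. Stopped with 600 uM cold SAM; streptavidin Flashplate capture, scintillation counts; % inhibition fitted to 3- or 4-parameter curve.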

Question: With `CC(=O)N1CC(Nc2cc(C(=O)NC[C@H](O)CN3CCc4cnccc4C3)ncn2)C1` [Compound 2-16] as the molecule, how does the pIC50 read?
Answer: 6.00 to 7.00

Question: With `CC(=O)N1CCC(Nc2cc(C(=O)NC[C@H](O)CN3CCc4sc(C)nc4C3)ccn2)CC1` [Compound 1-33] as the molecule, how does the pIC50 read?
Answer: 5.00 to 6.00

Question: `CC(=O)N1CCC(Nc2cc(C(=O)NC[C@H](O)CN3CCc4ncn(C)c4C3)ccn2)CC1` [Compound 3-24, (S)-2-((1-acetylpiperidin-4-yl)amino)-N-(2-hydroxy-3-(3-methyl-6,7-dihydro-3H-imidazo[4,5-c]pyridin-5(4H)-yl)propyl)isonicotinamide] was tested. Which pIC50 did it give?
Answer: < 5.00

Question: `CC(=O)N1CCC(Nc2cc(C(=O)NC[C@H](O)CN3CCc4nn(C)cc4C3)ncn2)CC1` [Compound 3-57] was tested. Which pIC50 did it give?
Answer: < 5.00

Question: How did the pIC50 turn out when `CC(=O)N1CCC(Nc2cc(C(=O)NC[C@H](O)CN3CCc4nn(C)cc4C3)ccn2)CC1` [Compound 3-53] was run?
Answer: 5.00 to 6.00

Question: With `O=C(COc1cccc2cccnc12)NCC(O)CN1CCc2ncccc2C1` (centres unmarked) [Compound 2-6, N-[2-hydroxy-3-(5,6,7,8-tetrahydro-1,6-naphthyridin-6-yl)propyl]-2-(quinolin-8-yloxy)acetamide] as the molecule, how does the pIC50 read?
Answer: 5.00 to 6.00

Question: `CC(=O)N1CCC(Nc2cc(C(=O)NC[C@H](O)CN3CCc4c(cnn4C)C3)ccn2)CC1` [Compound 3-52] was tested. Which pIC50 did it give?
Answer: 5.00 to 6.00

Question: With `O=C(COc1cccc2cccnc12)NCC(O)CN1CCc2nc[nH]c2C1` (centres unmarked) [Compound 3-10, N-(2-hydroxy-3-{3H,4H,5H,6H,7H-imidazo[4,5-c]pyridin-5-yl}propyl)-2-(quinolin-8-yloxy)acetamide] as the molecule, how does the pIC50 read?
Answer: < 5.00

Question: How did the pIC50 turn out when `CC(=O)N1CCC(Nc2cc(C(=O)NC[C@H](O)CN3CCc4sc(N)nc4C3)ncn2)CC1` [Compound 1-37] was run?
Answer: 5.00 to 6.00

Question: With `O=C(NC[C@H](O)CN1CCc2[nH]cnc2C1)c1cc(NC2COC2)ncn1` [Compound 3-38, (S)—N-(3-(6,7-dihydro-1H-imidazo[4,5-c]pyridin-5(4H)-yl)-2-hydroxypropyl)-6-(oxetan-3-ylamino)pyrimidine-4-carboxamide] as the molecule, how does the pIC50 read?
Answer: < 5.00

Question: With `CC(=O)N1CC(Nc2cc(C(=O)NC[C@H](O)CN3CCc4[nH]cnc4C3)ncn2)C1` [Compound 3-33, (S)-6-((1-acetylazetidin-3-yl)amino)-N-(3-(6,7-dihydro-1H-imidazo[4,5-c]pyridin-5(4H)-yl)-2-hydroxypropyl)pyrimidine-4-carboxamide] as the molecule, how does the pIC50 read?
Answer: < 5.00

Question: With `CC(=O)N1CCC(Nc2cc(C(=O)NC[C@H](O)CN3CCc4nc(N)sc4C3)ccn2)CC1` [Compound 1-35] as the molecule, how does the pIC50 read?
Answer: 6.00 to 7.00

Question: `O=C(COc1cccc2cccnc12)NCC(O)CN1CCc2cnccc2C1` (centres unmarked) [Compound 2-7, N-[2-hydroxy-3-(1,2,3,4-tetrahydro-2,6-naphthyridin-2-yl)propyl]-2-(quinolin-8-yloxy)acetamide] was tested. Which pIC50 did it give?
Answer: 5.00 to 6.00

Question: `CC(=O)N1CCC(Nc2cc(C(=O)NC[C@H](O)CN3CCc4cnccc4C3)ncn2)CC1` [Compound 2-17, (S)-6-((1-acetylpiperidin-4-yl)amino)-N-(3-(3,4-dihydro-2,6-naphthyridin-2(1H)-yl)-2-hydroxypropyl)pyrimidine-4-carboxamide] was tested. Which pIC50 did it give?
Answer: 6.00 to 7.00

Question: How did the pIC50 turn out when `Nc1nc2c(s1)CN(C[C@@H](O)CNC(=O)c1cc(NC3COC3)ncn1)CC2` [Compound 1-23] was run?
Answer: < 5.00

Question: `CC(=O)N1CCC(Nc2cc(C(=O)NC[C@H](O)CN3CCc4sc(C)nc4C3)ncn2)CC1` [Compound 1-36] was tested. Which pIC50 did it give?
Answer: 5.00 to 6.00

Question: With `CC(=O)N1CCC(Nc2cc(C(=O)NC[C@H](O)CN3CCCc4c3cnn4C)ncn2)CC1` [Compound 3-58] as the molecule, how does the pIC50 read?
Answer: < 5.00

Question: `CC(=O)N1CCC(Nc2cc(C(=O)NC[C@H](O)CN3CCc4scc(C)c4C3)ncn2)CC1` [Compound 1-13, (S)-6-((1-acetylpiperidin-4-yl)amino)-N-(2-hydroxy-3-(3-methyl-6,7-dihydrothieno[3,2-c]pyridin-5(4H)-yl)propyl)pyrimidine-4-carboxamide] was tested. Which pIC50 did it give?
Answer: > 7.00

Question: How did the pIC50 turn out when `CC(=O)N1CCC(Nc2cc(C(=O)NC[C@H](O)CN3CCc4nc(N)sc4C3)ncn2)CC1` [Compound 1-38] was run?
Answer: 5.00 to 6.00

Question: How did the pIC50 turn out when `CC(=O)N1CC(Nc2cc(C(=O)NC[C@H](O)CN3CCc4ncsc4C3)ncn2)C1` [Compound 1-17, (S)-6-((1-acetylazetidin-3-yl)amino)-N-(3-(6,7-dihydrothiazolo[5,4-c]pyridin-5(4H)-yl)-2-hydroxypropyl)pyrimidine-4-carboxamide] was run?
Answer: < 5.00

Question: With `CC(=O)N1CCC(Nc2cc(C(=O)NC[C@H](O)CN3CCc4[nH]ncc4C3)ccn2)CC1` [Compound 3-21] as the molecule, how does the pIC50 read?
Answer: 5.00 to 6.00

Question: `CC(=O)N1CC(Nc2cc(C(=O)NC[C@H](O)CN3CCc4[nH]nc(-c5ccccc5)c4C3)ncn2)C1` [Compound 3-11, (S)-6-((1-acetylazetidin-3-yl)amino)-N-(2-hydroxy-3-(3-phenyl-6,7-dihydro-1H-pyrazolo[4,3-c]pyridin-5(4H)-yl)propyl)pyrimidine-4-carboxamide] was tested. Which pIC50 did it give?
Answer: 5.00 to 6.00

Question: How did the pIC50 turn out when `CC(=O)N1CC(Nc2cc(C(=O)NC[C@H](O)CN3CCc4ccncc4C3)ncn2)C1` [Compound 2-22] was run?
Answer: 5.00 to 6.00

Question: With `CC(=O)N1CCC(Nc2cc(C(=O)NC[C@H](O)CN3CCc4ccncc4C3)ncn2)CC1` [Compound 2-23, (S)-6-((1-acetylpiperidin-4-yl)amino)-N-(3-(3,4-dihydro-2,7-naphthyridin-2(1H)-yl)-2-hydroxypropyl)pyrimidine-4-carboxamide] as the molecule, how does the pIC50 read?
Answer: 5.00 to 6.00

Question: With `O=C(NC[C@H](O)CN1CCc2cnccc2C1)c1cc(NC2COC2)ncn1` [Compound 2-15] as the molecule, how does the pIC50 read?
Answer: 5.00 to 6.00

Question: `CC(=O)N1CC(Nc2cc(C(=O)NC[C@H](O)CN3CCc4ncccc4C3)ncn2)C1` [Compound 2-9, (S)-6-((1-acetylazetidin-3-yl)amino)-N-(3-(7,8-dihydro-1,6-naphthyridin-6(5H)-yl)-2-hydroxypropyl)pyrimidine-4-carboxamide] was tested. Which pIC50 did it give?
Answer: 6.00 to 7.00

Question: `CC(=O)N1CCC(Nc2cc(C(=O)NC[C@H](O)CN3CCc4ncsc4C3)ncn2)CC1` [Compound 1-18, (S)-6-((1-acetylpiperidin-4-yl)amino)-N-(3-(6,7-dihydrothiazolo[5,4-c]pyridin-5(4H)-yl)-2-hydroxypropyl)pyrimidine-4-carboxamide] was tested. Which pIC50 did it give?
Answer: 5.00 to 6.00

Question: `CC(=O)N1CCC(Nc2cc(C(=O)NC[C@H](O)CN3CCc4oc(C)nc4C3)ccn2)CC1` [Compound 4-4, (S)-2-((1-acetylpiperidin-4-yl)amino)-N-(2-hydroxy-3-(2-methyl-6,7-dihydrooxazolo[4,5-c]pyridin-5(4H)-yl)propyl)isonicotinamide] was tested. Which pIC50 did it give?
Answer: < 5.00

Question: With `CC(=O)N1CCC(Nc2cc(C(=O)NC[C@H](O)CN3CCc4scc(C)c4C3)ccn2)CC1` [Compound 1-14, (S)-2-((1-acetylpiperidin-4-yl)amino)-N-(2-hydroxy-3-(3-methyl-6,7-dihydrothieno[3,2-c]pyridin-5(4H)-yl)propyl)isonicotinamide] as the molecule, how does the pIC50 read?
Answer: > 7.00

Question: `CC(=O)N1CCC(Nc2cc(C(=O)NC[C@H](O)CN3CCc4cnccc4C3)ccn2)CC1` [Compound 2-18] was tested. Which pIC50 did it give?
Answer: 6.00 to 7.00

Question: How did the pIC50 turn out when `CC(=O)N1CCC(Nc2cc(C(=O)NC[C@H](O)CN3CCc4[nH]cnc4C3)ccn2)CC1` [Compound 3-36, (S)-2-((1-acetylpiperidin-4-yl)amino)-N-(3-(6,7-dihydro-1H-imidazo[4,5-c]pyridin-5(4H)-yl)-2-hydroxypropyl)isonicotinamide] was run?
Answer: < 5.00

Question: With `CC(=O)N1CCC(Nc2cc(C(=O)NC[C@H](O)CN3CCc4ncccc4C3)ncn2)CC1` [Compound 2-14, (S)-6-((1-acetylpiperidin-4-yl)amino)-N-(3-(7,8-dihydro-1,6-naphthyridin-6(5H)-yl)-2-hydroxypropyl)pyrimidine-4-carboxamide] as the molecule, how does the pIC50 read?
Answer: > 7.00
